These results are taken from PubChem BioAssay (NCI).

Among the test systems are SF-268 CNS; SF-295 CNS; K-562 leukemia; HOP-92 NSCLC; OVCAR-3 ovarian; OVCAR-8 ovarian; SNB-19 CNS; HCT-116 colon; DU-145 prostate.
Test in all cases: growth of human tumour cells (NCI), 48 h

Values joined by “and” are separate entries in the source; they are usually repeats but may differ in a detail not shown here. Equal entries are not always repeated.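 1) Cells in 96-well plates. 2) Compound, 48 h, 5 concentrations. 3) Linear interpolation between surrounding doses. 4) Unreached endpoint = highest concentration. TGI: concentration producing complete growth inhibition.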 Where only a bound is given, the exact number is not on record here.

Consider `O=C1CCC(=O)C12CCc1cccc(O)c12`, for which the TGI with SF-268 CNS, in the assay with SF-295 CNS, in the assay on K-562 leukemia, in the assay on HOP-92 NSCLC, with OVCAR-3 ovarian and with OVCAR-8 ovarian was above 100 µM throughout.
For `CC1=N/C(=C\c2ccc([N+](=O)[O-])cc2)C(=O)O1`, the TGI in the assay on SNB-19 CNS, with SF-268 CNS, in the assay on HCT-116 colon, in the assay on SF-295 CNS, with K-562 leukemia and in the assay on HOP-92 NSCLC was above 100 µM in each case. Moreover, the TGI in the assay on OVCAR-3 ovarian and in the assay on OVCAR-8 ovarian was above 100 µM throughout.
Take `COc1ccc(/C=C/C(C(=O)O)C(=O)O)cc1`: the TGI in the assay with SNB-19 CNS, in the assay on SF-268 CNS, with HCT-116 colon, in the assay with SF-295 CNS, with K-562 leukemia and with HOP-92 NSCLC was above 100 µM in each case. Moreover, the TGI in the assay on OVCAR-3 ovarian and in the assay with OVCAR-8 ovarian was above 100 µM in each case.
`COc1ccc(Nc2c[nH]c(=O)[nH]c2=O)cc1`: the TGI with SNB-19 CNS, with HCT-116 colon, with SF-295 CNS, in the assay with DU-145 prostate, in the assay on K-562 leukemia and in the assay on HOP-92 NSCLC was above 100 µM in each case. Moreover, the TGI in the assay with OVCAR-3 ovarian and with OVCAR-8 ovarian was above 100 µM each time.
Take `CC(C)(C)C(=O)OCC(COC(=O)C(C)(C)C)[N+](=O)[O-]`: the TGI in the assay with SNB-19 CNS, in the assay on SF-268 CNS, in the assay with HCT-116 colon, in the assay on SF-295 CNS, with K-562 leukemia and with OVCAR-3 ovarian was above 100 µM throughout. This compound also came in with a TGI in the assay on OVCAR-8 ovarian above 100 µM.
Regarding `N#CC(=S)Nc1ccc(F)cc1`, the TGI with SNB-19 CNS, with SF-268 CNS, in the assay with HCT-116 colon, in the assay on SF-295 CNS, in the assay on DU-145 prostate and with K-562 leukemia was above 100 µM throughout. The values for the TGI in the assay on HOP-92 NSCLC, in the assay on OVCAR-3 ovarian and in the assay with OVCAR-8 ovarian were 68.3 µM, above 100 µM and above 100 µM, respectively.
As for `O=c1c2cccnc2ncn1CCCN1CCOCC1`, the TGI in the assay with SNB-19 CNS, in the assay with SF-268 CNS, in the assay on HCT-116 colon, with SF-295 CNS, with K-562 leukemia and with HOP-92 NSCLC was above 100 µM each time. The TGI with OVCAR-3 ovarian and in the assay with OVCAR-8 ovarian was above 100 µM each time.
Turning to `CCOC(=O)C1(C(=O)OCC)CC=C(C)CC12C(=O)Nc1ccccc12` (centres undefined), the TGI with SNB-19 CNS, in the assay with SF-268 CNS, with HCT-116 colon, in the assay with SF-295 CNS, with K-562 leukemia and in the assay with HOP-92 NSCLC was above 100 µM in each case. Moreover, the TGI in the assay on OVCAR-3 ovarian and in the assay on OVCAR-8 ovarian was above 100 µM each time.
On to `CN(C)CCNC(=O)c1cccc2c1nc(-c1ccccn1)c1ccccc12`, for which the TGI is above 100 µM with SNB-19 CNS; 61.6 µM with SF-268 CNS; 23 µM in the assay with HCT-116 colon; 41.1 µM in the assay with SF-295 CNS; 48.8 µM in the assay with K-562 leukemia; 39.7 µM with HOP-92 NSCLC. Besides, the TGI with OVCAR-3 ovarian came to 38.6 µM; with OVCAR-8 ovarian, 34.5 µM.
Consider `N#Cc1nc(Nc2ccc([N+](=O)[O-])cc2)sc1N`, for which the TGI in the assay on SNB-19 CNS was above 95.1 µM; in the assay on SF-268 CNS, above 100 µM; with HCT-116 colon it was above 100 µM; in the assay with SF-295 CNS it was above 100 µM; with K-562 leukemia, above 100 µM; with HOP-92 NSCLC, 75 µM. In addition, the TGI in the assay with OVCAR-3 ovarian was above 69.4 µM; with OVCAR-8 ovarian, above 100 µM.
Consider `Cc1ccc([Se][Se]c2ccc(C)cc2)cc1`, for which the TGI in the assay with SNB-19 CNS was above 100 µM; in the assay with SF-268 CNS, 88.1 µM; with HCT-116 colon, above 100 µM; with SF-295 CNS it was 61.6 µM; with K-562 leukemia, 28 µM; with HOP-92 NSCLC, 22.3 µM. Besides, the TGI with OVCAR-3 ovarian and in the assay with OVCAR-8 ovarian was above 100 µM each time.
With `COC(=O)C(=O)C(C#N)c1ccc(Cl)c(Cl)c1` (centres undefined), the TGI in the assay on SF-268 CNS, with HCT-116 colon, with SF-295 CNS, in the assay on K-562 leukemia, with HOP-92 NSCLC and in the assay with OVCAR-3 ovarian was above 100 µM throughout.
As for `COP1(=S)OCC2CCC[C@@H]2O1` (some centres undefined), the TGI in the assay on SNB-19 CNS, with SF-268 CNS, in the assay with HCT-116 colon, in the assay with SF-295 CNS, in the assay on DU-145 prostate and in the assay with K-562 leukemia was above 100 µM throughout. The TGI in the assay with HOP-92 NSCLC, with OVCAR-3 ovarian and in the assay on OVCAR-8 ovarian was above 100 µM each time.
`CC1=C(c2cc(C(=O)Nc3cccc(C(F)(F)F)c3)nc(NC#N)n2)Sc2ccccc2N1`: the TGI in the assay with SNB-19 CNS, in the assay with SF-268 CNS, in the assay with HCT-116 colon, with SF-295 CNS, in the assay with K-562 leukemia and in the assay on HOP-92 NSCLC was above 100 µM throughout. Also, the TGI with OVCAR-3 ovarian is above 100 µM.
Regarding `CCCCCCCCCC(=O)N[C@H]1CCc2cc(OC)c(OC)c(OC)c2-c2ccc(SC)c(=O)cc21`, the TGI with SNB-19 CNS was 75 µM; with HCT-116 colon, 0.0586 µM; in the assay on K-562 leukemia, 29.5 µM; in the assay on HOP-92 NSCLC it was 0.0788 µM; in the assay on OVCAR-3 ovarian, 0.0477 µM and 0.03 µM.
On to `O=C(O/N=C1/CCCC/C1=C\c1ccccc1)c1ccc(Cl)cc1`, for which the TGI in the assay with SNB-19 CNS, in the assay with SF-268 CNS, in the assay with HCT-116 colon, with SF-295 CNS, in the assay on K-562 leukemia and in the assay with HOP-92 NSCLC was above 100 µM throughout. Besides, the TGI in the assay with OVCAR-3 ovarian and with OVCAR-8 ovarian was above 100 µM each time.
Turning to `O=C1c2ccccc2C2(O)Oc3cccc(O)c3C12O` (centres undefined), the TGI in the assay with SNB-19 CNS, in the assay with SF-268 CNS, in the assay on HCT-116 colon, in the assay with SF-295 CNS, in the assay on K-562 leukemia and in the assay on HOP-92 NSCLC was above 100 µM throughout. Moreover, the TGI in the assay with OVCAR-3 ovarian and with OVCAR-8 ovarian was above 100 µM each time.
